The source of these data is publication PMC5218480 (PLoS ONE, 2017).

SMILES strings stand for the structures.

This assay deals with MV-4-11 cells. The assay is described as follows: Gene expression microarray analysis (Affymetrix PrimeView) and GSEA. Type of assay: cell-based, human. Also on record: RFU PODN (11730768_x_at) / Fold change /veh PODN (11730768_x_at) / RFU LINC00158 (11744669_a_at) / Fold change /veh LINC00158 (11744669_a_at) / RFU DUSP10 (11751237_a_at) / Fold change /veh DUSP10 (11751237_a_at) / RFU ID3 (11757404_x_at) / Fold change /veh ID3 (11757404_x_at) / RFU PLEKHG5 (11737974_s_at) / Fold change /veh PLEKHG5 (11737974_s_at) / RFU LRRC4B (11730491_at) / Fold change /veh LRRC4B (11730491_at) / RFU GIMAP4 (11747438_a_at) / Fold change /veh GIMAP4 (11747438_a_at) / RFU KRT8 (11758183_x_at) / Fold change /veh KRT8 (11758183_x_at) / RFU CNN1 (11734310_a_at) / Fold change /veh CNN1 (11734310_a_at) / RFU VPS37D (11726825_at) / Fold change /veh VPS37D (11726825_at) / RFU C10orf10 (11716522_x_at) / Fold change /veh C10orf10 (11716522_x_at) / RFU KIR2DL2 /// KIR2DL4 /// KIR2DL5A /// KIR2DL5B /// KIR2DS1 /// KIR2DS2 /// KIR2DS3 /// KIR2DS4 /// KIR3DL3 /// KIR3DL3 /// KIR3DS1 (11738374_at) / Fold change /veh KIR2DL2 /// KIR2DL4 /// KIR2DL5A /// KIR2DL5B /// KIR2DS1 /// KIR2DS2 /// KIR2DS3 /// KIR2DS4 /// KIR3DL3 /// KIR3DL3 /// KIR3DS1 (11738374_at) / RFU C1QL1 (11718748_at) / Fold change /veh C1QL1 (11718748_at) / RFU TMPRSS4 (11747572_a_at) / Fold change /veh TMPRSS4 (11747572_a_at) / RFU HAMP (11756126_x_at) / Fold change /veh HAMP (11756126_x_at) / RFU RNFT2 (11725882_a_at) / Fold change /veh RNFT2 (11725882_a_at) / RFU NR4A2 (11747474_a_at) / Fold change /veh NR4A2 (11747474_a_at) / RFU ABCC12 (11746883_a_at) / Fold change /veh ABCC12 (11746883_a_at) / RFU TMEM136 (11760407_x_at) / Fold change /veh TMEM136 (11760407_x_at) / RFU CLDN22 /// WWC2 (11732394_at) / Fold change /veh CLDN22 /// WWC2 (11732394_at) / RFU HLA-DPB1 (11760878_x_at) / Fold change /veh HLA-DPB1 (11760878_x_at) / RFU SPINT1 (11716480_a_at) / Fold change /veh SPINT1 (11716480_a_at) / RFU GAP43 (11754022_s_at) / Fold change /veh GAP43 (11754022_s_at) / RFU A4GNT (11735810_at) / Fold change /veh A4GNT (11735810_at) / RFU PRB3 (11715151_x_at) / Fold change /veh PRB3 (11715151_x_at) / RFU TUBB4B (11761932_at) / Fold change /veh TUBB4B (11761932_at) / RFU CAPN14 (11732068_a_at) / Fold change /veh CAPN14 (11732068_a_at) / RFU TMCC2 (11721928_a_at) / Fold change /veh TMCC2 (11721928_a_at) / RFU IRGQ (11745062_a_at) / Fold change /veh IRGQ (11745062_a_at) / RFU FAM174B (11720279_a_at) / Fold change /veh FAM174B (11720279_a_at) / RFU TMPRSS4 (11748680_a_at) / Fold change /veh TMPRSS4 (11748680_a_at) / RFU FAM212B (11763350_a_at) / Fold change /veh FAM212B (11763350_a_at) / RFU PLEKHG5 (11743358_a_at) / Fold change /veh PLEKHG5 (11743358_a_at) / RFU ZSCAN30 (11745921_a_at) / Fold change /veh ZSCAN30 (11745921_a_at) / RFU CMKLR1 (11741424_a_at) / Fold change /veh CMKLR1 (11741424_a_at) / RFU LOC101060620 /// MAPK8IP1 (11723275_at) / Fold change /veh LOC101060620 /// MAPK8IP1 (11723275_at) / RFU SPTSSB (11747773_x_at) / Fold change /veh SPTSSB (11747773_x_at) / RFU PRSS12 (11739890_at) / Fold change /veh PRSS12 (11739890_at) / RFU BIN1 (11741810_x_at) / Fold change /veh BIN1 (11741810_x_at) / RFU WNT11 (11732464_a_at) / Fold change /veh WNT11 (11732464_a_at) / RFU C10orf10 (11716521_a_at) / Fold change /veh C10orf10 (11716521_a_at) / RFU C5orf56 (11738089_at) / Fold change /veh C5orf56 (11738089_at) / RFU CYB561 (11721691_x_at) / Fold change /veh CYB561 (11721691_x_at) / RFU ANKRD19P (11752326_a_at) / Fold change /veh ANKRD19P (11752326_a_at) / RFU OR2T12 /// OR2T33 /// OR2T8 (11738714_s_at) / Fold change /veh OR2T12 /// OR2T33 /// OR2T8 (11738714_s_at) / RFU VCAN (11748164_a_at) / Fold change /veh VCAN (11748164_a_at) / RFU JSRP1 (11732532_at) / Fold change /veh JSRP1 (11732532_at) / RFU KRTAP10-11 (11738290_x_at) / Fold change /veh KRTAP10-11 (11738290_x_at) / RFU MYO3A (11730013_a_at) / Fold change /veh MYO3A (11730013_a_at) / RFU EBF3 (11725865_a_at) / Fold change /veh EBF3 (11725865_a_at) / RFU CAMK2N1 (11719241_x_at) / Fold change /veh CAMK2N1 (11719241_x_at) / RFU C5orf56 (11738088_a_at) / Fold change /veh C5orf56 (11738088_a_at) / RFU OLFML3 (11715873_a_at) / Fold change /veh OLFML3 (11715873_a_at) / RFU LOC100653217 /// NTM (11731650_a_at) / Fold change /veh LOC100653217 /// NTM (11731650_a_at) / RFU MAPK11 (11762145_a_at) / Fold change /veh MAPK11 (11762145_a_at) / RFU FIZ1 (11724087_x_at) / Fold change /veh FIZ1 (11724087_x_at) / RFU OASL (11726364_x_at) / Fold change /veh OASL (11726364_x_at) / RFU SOX15 (11748057_x_at) / Fold change /veh SOX15 (11748057_x_at) / RFU CD79A (11719716_a_at) / Fold change /veh CD79A (11719716_a_at) / RFU HIST1H1D (11736915_at) / Fold change /veh HIST1H1D (11736915_at) / RFU CASKIN2 (11723855_a_at) / Fold change /veh CASKIN2 (11723855_a_at) / RFU LOC730098 (11760151_x_at) / Fold change /veh LOC730098 (11760151_x_at) / RFU OR4N2 (11742367_at) / Fold change /veh OR4N2 (11742367_at) / RFU PRRT2 (11749266_a_at) / Fold change /veh PRRT2 (11749266_a_at) / RFU SNX32 (11753110_a_at) / Fold change /veh SNX32 (11753110_a_at) / RFU CDHR5 (11726645_a_at) / Fold change /veh CDHR5 (11726645_a_at) / RFU RCAN1 (11760418_a_at) / Fold change /veh RCAN1 (11760418_a_at) / RFU FAM167A (11723789_a_at) / Fold change /veh FAM167A (11723789_a_at) / RFU FAM26E (11764081_at) / Fold change /veh FAM26E (11764081_at) / RFU ISYNA1 (11749810_s_at) / Fold change /veh ISYNA1 (11749810_s_at) / RFU ACY1 (11761880_at) / Fold change /veh ACY1 (11761880_at) / RFU 11764098_at / Fold change /veh 11764098_at / RFU SAMD14 (11745864_x_at) / Fold change /veh SAMD14 (11745864_x_at) / RFU NPB (11741838_a_at) / Fold change /veh NPB (11741838_a_at) / RFU TMPRSS6 (11731388_a_at) / Fold change /veh TMPRSS6 (11731388_a_at) / RFU KRTAP10-2 (11738614_at) / Fold change /veh KRTAP10-2 (11738614_at) / RFU ARHGAP8 /// PRR5-ARHGAP8 (11727945_x_at) / Fold change /veh ARHGAP8 /// PRR5-ARHGAP8 (11727945_x_at) / RFU KRTAP5-7 /// NADSYN1 (11734609_at) / Fold change /veh KRTAP5-7 /// NADSYN1 (11734609_at) / RFU RASL12 (11751679_a_at) / Fold change /veh RASL12 (11751679_a_at) / RFU CDKN2B (11736163_a_at) / Fold change /veh CDKN2B (11736163_a_at) / RFU PRF1 (11729649_at) / Fold change /veh PRF1 (11729649_at) / RFU, ZNF638 /// ZNF638-IT1 / Fold change vs veh, ZNF638 /// ZNF638-IT1 / RFU, PANK3 / Fold change vs veh, PANK3 / RFU, SH3YL1 / Fold change vs veh, SH3YL1 / RFU, ZEB2 / Fold change vs veh, ZEB2 / RFU, NRIP1 / Fold change vs veh, NRIP1 / RFU, PTTG1IP / Fold change vs veh, PTTG1IP / RFU, CAPN2 / Fold change vs veh, CAPN2 / RFU, MED14 / Fold change vs veh, MED14 / RFU, SNORA58 / Fold change vs veh, SNORA58 / RFU, C1orf63 / Fold change vs veh, C1orf63 / RFU, LRRFIP1 / Fold change vs veh, LRRFIP1 / RFU, NDUFAF7 / Fold change vs veh, NDUFAF7 / RFU, SLC12A2 / Fold change vs veh, SLC12A2 / RFU, IBTK / Fold change vs veh, IBTK / RFU, ESF1 / Fold change vs veh, ESF1 / Fold change vs veh, TMEM50B / RFU, TAOK1 / Fold change vs veh, TAOK1 / RFU, ACBD3 / Fold change vs veh, ACBD3 / RFU, TMA16 / Fold change vs veh, TMA16 / RFU, RWDD3 / Fold change vs veh, RWDD3 / RFU, BCAT1 / Fold change vs veh, BCAT1 / RFU, EDEM3 / Fold change vs veh, EDEM3 / RFU, TMEM33 / Fold change vs veh, TMEM33 / RFU, WDR75 / Fold change vs veh, WDR75 / RFU, AHCTF1 / Fold change vs veh, AHCTF1 / RFU, TFRC / Fold change vs veh, TFRC / RFU, ZDHHC17 / Fold change vs veh, ZDHHC17 / RFU, NOM1 / Fold change vs veh, NOM1 / RFU, ARL8B / Fold change vs veh, ARL8B / RFU, ZBTB11 / Fold change vs veh, ZBTB11 / RFU, TAMM41 / Fold change vs veh, TAMM41 / RFU, KIAA1704 /// LOC100996395 / Fold change vs veh, KIAA1704 /// LOC100996395 / RFU, ING1 / Fold change vs veh, ING1 / RFU, TRMT61B / Fold change vs veh, TRMT61B / RFU, FUBP3 / Fold change vs veh, FUBP3 / RFU, TP53 / Fold change vs veh, TP53 / RFU, TNKS2 / Fold change vs veh, TNKS2 / RFU, ZFP14 / Fold change vs veh, ZFP14 / RFU, ACTR2 / Fold change vs veh, ACTR2 / RFU, PPP3R1 / Fold change vs veh, PPP3R1 / RFU, PIK3R1 / Fold change vs veh, PIK3R1 / RFU, HNRNPA1 / Fold change vs veh, HNRNPA1 / RFU, RNF170 / Fold change vs veh, RNF170 / RFU, ZNF28 / Fold change vs veh, ZNF28 / RFU, RNGTT / Fold change vs veh, RNGTT / RFU, OGT / Fold change vs veh, OGT / RFU, BRD1 / Fold change vs veh, BRD1 / RFU, MARS / Fold change vs veh, MARS / RFU, ZNF655 / Fold change vs veh, ZNF655 / RFU, FAHD1 / Fold change vs veh, FAHD1 / RFU, BDP1 / Fold change vs veh, BDP1 / RFU, LRRCC1 / Fold change vs veh, LRRCC1 / RFU, ARID1A / Fold change vs veh, ARID1A / RFU, ZNF146 / Fold change vs veh, ZNF146 / RFU, ZNF330 / Fold change vs veh, ZNF330 / RFU, GPN3 / Fold change vs veh, GPN3 / RFU, C9orf123 / Fold change vs veh, C9orf123 / RFU, N4BP2L2 / Fold change vs veh, N4BP2L2 / RFU, ARFIP1 / Fold change vs veh, ARFIP1 / RFU, FAM179B / Fold change vs veh, FAM179B / RFU, BCL10 / Fold change vs veh, BCL10 / RFU, UHRF1BP1L / Fold change vs veh, UHRF1BP1L / RFU, BET1 / Fold change vs veh, BET1 / RFU, CNOT2 / Fold change vs veh, CNOT2 / RFU, ZNF268 / Fold change vs veh, ZNF268 / Fold change vs veh, ZNF507 / RFU, DGCR2 / Fold change vs veh, DGCR2 / RFU, WDSUB1 / Fold change vs veh, WDSUB1 / Fold change vs veh, HSP90B1 /// MIR3652 / RFU, ADSS / Fold change vs veh, ADSS / RFU, GK / Fold change vs veh, GK / RFU, ZNF148 / Fold change vs veh, ZNF148 / RFU, TAF9 / Fold change vs veh, TAF9 / RFU, SLC1A5 / Fold change vs veh, SLC1A5 / RFU, SLMO2 / Fold change vs veh, SLMO2 / RFU, ABCC4 / Fold change vs veh, ABCC4 / RFU, LOC101060439 /// RAP1B / Fold change vs veh, LOC101060439 /// RAP1B / RFU, RFX7 / Fold change vs veh, RFX7 / RFU, GTPBP10 / Fold change vs veh, GTPBP10 / RFU, CNEP1R1 / Fold change vs veh, CNEP1R1 / RFU, BIVM-ERCC5 /// ERCC5 / Fold change vs veh, BIVM-ERCC5 /// ERCC5 / RFU, ILF3 / Fold change vs veh, ILF3 / RFU 11762660_at / Fold change /veh 11762660_at / RFU VCAN (11757783_s_at) / Fold change /veh VCAN (11757783_s_at) / RFU DDX43 (11728927_at) / Fold change /veh DDX43 (11728927_at) / RFU KRT8 (11758188_x_at) / Fold change /veh KRT8 (11758188_x_at) / RFU NKD1 (11759106_at) / Fold change /veh NKD1 (11759106_at) / RFU SRD5A1 (11742802_a_at) / Fold change /veh SRD5A1 (11742802_a_at) / RFU TPSAB1 /// TPSB2 (11721975_s_at) / Fold change /veh TPSAB1 /// TPSB2 (11721975_s_at) / RFU GSTM3 (11746129_a_at) / Fold change /veh GSTM3 (11746129_a_at) / RFU IL23R (11737362_x_at) / Fold change /veh IL23R (11737362_x_at) / RFU TMEM51 (11727254_a_at) / Fold change /veh TMEM51 (11727254_a_at) / RFU PIWIL2 (11732686_x_at) / Fold change /veh PIWIL2 (11732686_x_at) / RFU ORM1 (11744905_x_at) / Fold change /veh ORM1 (11744905_x_at) / RFU CCDC152 (11743942_at) / Fold change /veh CCDC152 (11743942_at) / RFU ECM1 (11717891_a_at) / Fold change /veh ECM1 (11717891_a_at) / RFU IL23R (11748794_a_at) / Fold change /veh IL23R (11748794_a_at) / RFU TNFAIP8L3 (11732012_x_at) / Fold change /veh TNFAIP8L3 (11732012_x_at) / RFU MBOAT4 (11741988_at) / Fold change /veh MBOAT4 (11741988_at) / RFU 11764193_at / Fold change /veh 11764193_at / RFU TMEM53 (11763286_at) / Fold change /veh TMEM53 (11763286_at) / RFU MAGEB2 (11727129_at) / Fold change /veh MAGEB2 (11727129_at) / RFU TMEM200A (11744735_a_at) / Fold change /veh TMEM200A (11744735_a_at) / RFU CCDC152 (11751479_a_at) / Fold change /veh CCDC152 (11751479_a_at) / RFU FAM211A (11726209_a_at) / Fold change /veh FAM211A (11726209_a_at) / RFU RGS16 (11746705_a_at) / Fold change /veh RGS16 (11746705_a_at) / RFU VCAN (11755009_s_at) / Fold change /veh VCAN (11755009_s_at) / RFU RHOB (11743442_s_at) / Fold change /veh RHOB (11743442_s_at) / RFU RGS16 (11720943_a_at) / Fold change /veh RGS16 (11720943_a_at) / RFU RGS16 (11720944_at) / Fold change /veh RGS16 (11720944_at) / RFU, VPS4B / Fold change vs veh, VPS4B / RFU, CREB1 / Fold change vs veh, CREB1 / RFU, DNAJC13 / Fold change vs veh, DNAJC13 / RFU, GNAQ / Fold change vs veh, GNAQ / RFU, CDK5R1 / Fold change vs veh, CDK5R1 / RFU, ZRANB3 / Fold change vs veh, ZRANB3 / RFU, CUL4A / Fold change vs veh, CUL4A / RFU, CCNY / Fold change vs veh, CCNY / RFU, UFL1 / Fold change vs veh, UFL1 / RFU, COG3 / Fold change vs veh, COG3 / RFU, DIAPH2 / Fold change vs veh, DIAPH2 / RFU, SKA2 / Fold change vs veh, SKA2 / RFU, AFF3 / Fold change vs veh, AFF3 / RFU, LMF1 / Fold change vs veh, LMF1 / RFU, IPO11 / Fold change vs veh, IPO11 / RFU, DFFB / Fold change vs veh, DFFB / RFU, FOXP1 / Fold change vs veh, FOXP1 / RFU, CARD8 / Fold change vs veh, CARD8 / RFU, STRN3 / Fold change vs veh, STRN3 / RFU, ADK / Fold change vs veh, ADK / RFU, RASSF2 / Fold change vs veh, RASSF2 / RFU, WIPF1 / Fold change vs veh, WIPF1 / RFU, LARP1B / Fold change vs veh, LARP1B / RFU, RASA1 / Fold change vs veh, RASA1 / RFU, RB1 / Fold change vs veh, RB1 / RFU, PPFIA1 / Fold change vs veh, PPFIA1 / RFU, MAT2A / Fold change vs veh, MAT2A / RFU, CCT5 / Fold change vs veh, CCT5 / RFU, WDR92 / Fold change vs veh, WDR92 / RFU, CUX1 / Fold change vs veh, CUX1 / RFU, TTC7A / Fold change vs veh, TTC7A / RFU, TMEM135 / Fold change vs veh, TMEM135 / RFU, DEPTOR / Fold change vs veh, DEPTOR / RFU, CPM / Fold change vs veh, CPM / RFU, DNAJB6 / Fold change vs veh, DNAJB6 / RFU, CACNA2D3 / Fold change vs veh, CACNA2D3 / RFU, DTX4 / Fold change vs veh, DTX4 / RFU, TFCP2 / Fold change vs veh, TFCP2 / RFU, GMCL1 /// GMCL1P1 / Fold change vs veh, GMCL1 /// GMCL1P1 / RFU, AEBP2 / Fold change vs veh, AEBP2 / RFU, SNHG1 /// SNORD22 /// SNORD25 /// SNORD26 /// SNORD27 /// SNORD28 /// SNORD29 /// SNORD31 / Fold change vs veh, SNHG1 /// SNORD22 /// SNORD25 /// SNORD26 /// SNORD27 /// SNORD28 /// SNORD29 /// SNORD31 / Fold change (Aza/veh), C12orf56 (ProbeSet 11735607_a_at) / Fold change (ACY-1035/veh), C12orf56 (ProbeSet 11735607_a_at) / Fold change (Aza/veh), FGFR1OP (ProbeSet 11751329_s_at) / Fold change (ACY-1035/veh), FGFR1OP (ProbeSet 11751329_s_at) / Fold change (Aza/veh), VPS36 (ProbeSet 11739960_a_at) / Fold change (ACY-1035/veh), VPS36 (ProbeSet 11739960_a_at) / RFU SYPL1 (11715823_x_at) / Fold change /veh SYPL1 (11715823_x_at) / RFU IGFBP7 (11715501_s_at) / Fold change /veh IGFBP7 (11715501_s_at) / RFU REEP3 (11722064_at) / Fold change /veh REEP3 (11722064_at) / RFU IGLL1 (11728026_x_at) / Fold change /veh IGLL1 (11728026_x_at): dose or concentration left out as unconfirmed. Particulars: ProbeSet 11752001_a_at; LIST D.

For the compound `Nc1ccc(-c2cccs2)cc1NC(=O)c1ccc2c(c1)cc(C1CC1)n2CCN1CCOCC1` [ACY-1035], the “Fold change vs veh, CUL4A” value is 0.87.
